Reference: the supplement of paper PMC11061612

Tests used:
Venetoclax = compound: CC1(C)CCC(CN2CCN(c3ccc(C(=O)NS(=O)(=O)c4ccc(NCC5CCOCC5)c([N+](=O)[O-])c4)c(Oc4cnc5[nH]ccc5c4)c3)CC2)=C(c2ccc(Cl)cc2)C1 [Venetoclax]; details: max 1 µM
How it was run: (§1)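 Viability was measured with CellTiter-Glo 2.0 luminescence after 72 hours of dosing at a final DMSO of typically 0.2%, and scaled between blank-well and DMSO-well means. Beforehand, cancer cell lines sat 24 hours at 37°C and 5% CO2 in 1536-well plates in 7.5 μl DMEM/F12 or RPMI with 10% FBS. A non-linear mixed effects model fitted two-parameter logistic curves to the dose responses. The single-agent IC50 comes from these fits.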

Selumetinib = compound: Cn1cnc2c(F)c(Nc3ccc(Br)cc3Cl)c(C(=O)NOCCO)cc21 [Selumetinib]; details: max 10 µM
How it was run: as §1

Taselisib = compound: Cc1nc(-c2cn3c(n2)-c2ccc(-c4cnn(C(C)(C)C(N)=O)c4)cc2OCC3)n(C(C)C)n1 [Taselisib]; details: max 10 µM
How it was run: as §1

Trametinib = compound: CC(=O)Nc1cccc(-n2c(=O)n(C3CC3)c(=O)c3c(Nc4ccc(I)cc4F)n(C)c(=O)c(C)c32)c1 [Trametinib]; details: max 1 µM
How it was run: as §1

Savolitinib = compound: C[C@@H](c1ccc2nccn2c1)n1nnc2ncc(-c3cnn(C)c3)nc21 [Savolitinib]; details: max 1 µM
How it was run: as §1

Doxorubicin = compound: COc1cccc2c1C(=O)c1c(O)c3c(c(O)c1C2=O)C[C@@](O)(C(=O)CO)C[C@@H]3O[C@H]1C[C@H](N)[C@H](O)[C@H](C)O1 [Doxorubicin]; details: max 1 µM
How it was run: as §1

Alisertib = compound: COc1cc(Nc2ncc3c(n2)-c2ccc(Cl)cc2C(c2c(F)cccc2OC)=NC3)ccc1C(=O)O [Alisertib]; details: max 10 µM
How it was run: as §1

AZD1390 = compound: CC(C)n1c(=O)n(C)c2cnc3cc(F)c(-c4ccc(OCCCN5CCCCC5)nc4)cc3c21 [AZD1390]; details: max 0.3 µM
How it was run: as §1

Gefitinib = compound: COc1cc2ncnc(Nc3ccc(F)c(Cl)c3)c2cc1OCCCN1CCOCC1 [Gefitinib]; details: max 10 µM
How it was run: as §1

Prexasertib = compound: COc1cccc(OCCCN)c1-c1cc(Nc2cnc(C#N)cn2)n[nH]1 [Prexasertib]; details: max 1 µM
How it was run: as §1

Lapatinib = compound: CS(=O)(=O)CCNCc1ccc(-c2ccc3ncnc(Nc4ccc(OCc5cccc(F)c5)c(Cl)c4)c3c2)o1 [Lapatinib]; details: max 10 µM
How it was run: as §1

SN-38 = compound: CCc1c2c(nc3ccc(O)cc13)-c1cc3c(c(=O)n1C2)COC(=O)[C@]3(O)CC [SN-38]; details: max 0.3 µM
How it was run: as §1

Crizotinib = compound: C[C@@H](Oc1cc(-c2cnn(C3CCNCC3)c2)cnc1N)c1c(Cl)ccc(F)c1Cl [Crizotinib]; details: max 10 µM
How it was run: as §1

Capivasertib = compound: C1CN(CCC1(C(=O)N[C@@H](CCO)C2=CC=C(C=C2)Cl)N)C3=NC=NC4=C3C=CN4 [Capivasertib]; details: max 10 µM
How it was run: as §1

Palbociclib = compound: CC(=O)c1c(C)c2cnc(Nc3ccc(N4CCNCC4)cn3)nc2n(C2CCCC2)c1=O [Palbociclib]; details: max 10 µM
How it was run: as §1

AZD8186 = compound: C[C@@H](Nc1cc(F)cc(F)c1)c1cc(C(=O)N(C)C)cc2c(=O)cc(N3CCOCC3)oc12 [AZD8186]; details: max 3 µM
How it was run: as §1

AZD0156 = compound: CN(C)CCCOc1ccc(-c2ccc3ncc4c(c3c2)n(C2CCOCC2)c(=O)n4C)cn1 [AZD0156]; details: max 3 µM
How it was run: as §1

AZD5153 = compound: COc1nnc2ccc(N3CCC(c4ccc(OCCN5CCN(C)C(=O)[C@H]5C)cc4)CC3)nn12 [AZD5153]; details: max 1 µM
How it was run: as §1

Olaparib = compound: O=C(c1cc(Cc2n[nH]c(=O)c3ccccc23)ccc1F)N1CCN(C(=O)C2CC2)CC1 [Olaparib]; details: max 10 µM
How it was run: as §1

SG3199 = compound: CC1=CN2[C@@H](C1)C=NC3=CC(=C(C=C3C2=O)OC)OCCCCCOC4=C(C=C5C(=C4)N=C[C@@H]6CC(=CN6C5=O)C)OC [SG3199]; details: max 0.001 µM
How it was run: as §1

AZD6738 = compound: C[C@@H]1COCCN1C2=NC(=NC(=C2)C3(CC3)[S@](=N)(=O)C)C4=C5C=CNC5=NC=C4 [AZD6738]; details: max 10 µM
How it was run: as §1

AZD5991 = compound: Cc1c2c(nn1C)CSCc1cc(n(C)n1)CSc1cc(c3ccccc3c1)OCCCc1c(C(=O)O)n(C)c3c-2c(Cl)ccc13 [AZD5991]; details: max 1 µM
How it was run: as §1

Dasatinib = compound: CC1=C(C(=CC=C1)Cl)NC(=O)C2=CN=C(S2)NC3=CC(=NC(=N3)C)N4CCN(CC4)CCO [Dasatinib]; details: max 2 µM
How it was run: as §1

AZD2811 = compound: CCN(CCO)CCCOc1ccc2c(Nc3cc(CC(=O)Nc4cccc(F)c4)[nH]n3)ncnc2c1 [AZD2811]; details: max 1 µM
How it was run: as §1

AZD4320 = compound: CN(CC[C@H](CSC1=CC=CC=C1)NC2=C(C=C(C=C2)S(=O)(=O)NC(=O)C3=CC=C(C=C3)N4CCC(CC4)[C@H](C5=CC=CC=C5C6=CC=C(C=C6)Cl)O)S(=O)(=O)C(F)(F)F)CCO [AZD4320]; details: max 1 µM
How it was run: as §1

AZD7648 = compound: Cc1cc2ncnn2cc1Nc1ncc2c(n1)n(C1CCOCC1)c(=O)n2C [AZD7648]; details: max 10 µM
How it was run: as §1

AZD1775 = compound: C=CCn1c(=O)c2cnc(Nc3ccc(N4CCN(C)CC4)cc3)nc2n1-c1cccc(C(C)(C)O)n1 [AZD1775]; details: max 3 µM
How it was run: as §1

Cell Line | IC50, cell viability 72 h (Venetoclax) | IC50, cell viability 72 h (Selumetinib) | IC50, cell viability 72 h (Taselisib) | IC50, cell viability 72 h (Trametinib) | IC50, cell viability 72 h (Savolitinib) | IC50, cell viability 72 h (Doxorubicin) | IC50, cell viability 72 h (Alisertib) | IC50, cell viability 72 h (AZD1390) | IC50, cell viability 72 h (Gefitinib) | IC50, cell viability 72 h (Prexasertib) | IC50, cell viability 72 h (Lapatinib) | IC50, cell viability 72 h (SN-38) | IC50, cell viability 72 h (Crizotinib) | IC50, cell viability 72 h (Capivasertib) | IC50, cell viability 72 h (Palbociclib) | IC50, cell viability 72 h (AZD8186) | IC50, cell viability 72 h (AZD0156) | IC50, cell viability 72 h (AZD5153) | IC50, cell viability 72 h (Olaparib) | IC50, cell viability 72 h (SG3199) | IC50, cell viability 72 h (AZD6738) | IC50, cell viability 72 h (AZD5991) | IC50, cell viability 72 h (Dasatinib) | IC50, cell viability 72 h (AZD2811) | IC50, cell viability 72 h (AZD4320) | IC50, cell viability 72 h (AZD7648) | IC50, cell viability 72 h (AZD1775)
HT-1080 (Other Solid Carcinomas) | > 1000 nM | > 10000 nM | > 10000 nM | > 1000 nM | > 1000 nM | > 1000 nM | > 10000 nM | > 300 nM | > 10000 nM | 536 nM | > 10000 nM | > 300 nM | > 10000 nM | > 10000 nM | > 10000 nM | > 3000 nM | > 3000 nM | > 1000 nM | > 10000 nM | > 1 nM | > 10000 nM | > 1000 nM | > 2000 nM | > 1000 nM | 721 nM | > 10000 nM | > 3000 nM
MM1S (Plasma Cell Myeloma) | > 1000 nM | > 10000 nM | 207 nM | > 1000 nM | > 1000 nM | 459 nM | > 10000 nM | > 300 nM | > 10000 nM | 30.1 nM | > 10000 nM | 10.1 nM | 6080 nM | 545 nM | > 10000 nM | > 3000 nM | 1690 nM | 347 nM | > 10000 nM | > 1 nM | 9520 nM | 325 nM | > 2000 nM | > 1000 nM | 153 nM | > 10000 nM | 720 nM
MOLP-8 (Plasma Cell Myeloma) | > 1000 nM | > 10000 nM | 439 nM | > 1000 nM | > 1000 nM | 407 nM | 5240 nM | > 300 nM | > 10000 nM | 24.5 nM | > 10000 nM | 48.4 nM | 2650 nM | 8910 nM | > 10000 nM | > 3000 nM | 1740 nM | 49.5 nM | > 10000 nM | > 1 nM | 3830 nM | 48.5 nM | > 2000 nM | > 1000 nM | > 1000 nM | > 10000 nM | 465 nM
MOLT-13 (T-Lymphoblastic Leukemia) | 416 nM | 5270 nM | > 10000 nM | 459 nM | > 1000 nM | 467 nM | 177 nM | > 300 nM | > 10000 nM | 16.5 nM | 5860 nM | 3.85 nM | 4260 nM | > 10000 nM | 5570 nM | > 3000 nM | > 3000 nM | 35.7 nM | > 10000 nM | > 1 nM | 2370 nM | 52.8 nM | > 2000 nM | 42.7 nM | 33.8 nM | > 10000 nM | 440 nM
